Source: ChEMBL document CHEMBL1122800, “Synthesis of a tricyclic aphidicolin analogue that inhibits DNA synthesis in vitro” (J Med Chem, 1984)
The source made the active and inactive calls. The calls are words filed in the database; no cut-off is given here.

Key:
[1] = test system: Nucleic Acid; experiment: Ability of compound to inhibit DNA synthesis against the uptake of [3H]thymidine in freshly seeded cultures of SV-40 transformed WI-38 human lung fibroblast at a concentration 0.15 ug/mL.
[2] = test system: Nucleic Acid; experiment: Ability of compound to inhibit DNA synthesis against the uptake of [3H]thymidine in freshly seeded cultures of SV-40 transformed WI-38 human lung fibroblast; NA = no activity

Structure (SMILES) | inhibition [1] [%] | inhibition [2]
C[C@@]1(CO)C(O)CC[C@]2(C)C3CC(O)CC3CC[C@@H]12 (some centres not stated) | 50 | –
C[C@]12CCC(O)[C@@](C)(CO)[C@@H]1CCC1CC(O)C=C12 (some centres not stated) | – | inactive
C[C@]12CCC(O)[C@@](C)(CO)[C@@H]1CCC1C[C@H](O)C[C@@H]12 (some centres not stated) | – | inactive
C[C@]12CCC(O)[C@@](C)(CO)[C@@H]1CCC1CC(=O)C[C@@H]12 (some centres not stated) | – | inactive
C[C@@]1(CO)C(O)CC[C@]2(C)C3CC(=O)CC3CC[C@@H]12 (some centres not stated) | – | inactive
C[C@]12CCC(O)[C@@](C)(CO)[C@@H]1CCC1CC(=O)C=C12 (some centres not stated) | – | inactive
C[C@@]1(CO)[C@H](O)CC[C@@]2(C)[C@H]1CC[C@H]1C[C@@H]3C[C@@]12CC[C@]3(O)CO | 50 | –
